Where two headings read alike, the source gives them in different places.

Holding throughout (experiment): Proliferation assay
Common to all, as to assay type: cell-based
Holding throughout (settings): for EC50: Homo sapiens, 96 h, 4 days

The test system of one test is HepG2. The text has this:
(§1) The cell lines HepG2 (ACC180, RRID:CVCL_0027; DMSZ, Braunschweig Germany), SNU-475 (CRL-2236, Lot. 58483227, RRID:CVCL_0497; ATCC, Manassas, Virginia, US), SNU-387 (CRL-2237, Lot. 58483192, RRID:CVCL_0250; ATCC, Virginia, US), PLC/PRF/5 (300315, Lot. 812, RRID:CVCL_0485; CLS Cell Lines Service GmbH, Eppelheim, Germany) and HuH-7 (JCRB0403, Lot. 2272008, RRID:CVCL_0336; JCRB Cell Bank, Japan) were propagated according to the distributor’s guidelines. The authenticity of the cell lines was confirmed by short tandem repeat (STR) analysis (DSMZ, Braunschweig, Germany). Mycoplasma contamination was ruled out by PCR testing. For assays with platelet lysate (PL), FBS was substituted with 10% PLTMax Human Platelet Lysate (Cat. Nr. SCM141, Lot Number VP1602259; Millipore, Burlington, Massachusetts, US). The PL was supplemented with 20 U/ml Heparin (Heparin sodium salt from porcine intestinal mucosa, H4784-250MG; Sigma-Aldrich, Taufkirchen, Germany) to prevent coagulation.
(§2) Prior to the assay, the optimal seeding density was determined for each cell line to obtain an exponential growth during the experiment (2000 to 6000 cells per 96-well). Drug dilution series with 8 concentrations were prepared for EC50 determinations of single drugs. Three wells for each concentration were seeded (technical replicates). For drug combinations, dilution series of six concentrations for each drug alone or in combination at equal ratio were prepared. After 4 h of cell seeding, the drugs were added to the cells. Each 96-well plate contained a vehicle control (0.1% or 0.2% DMSO), a death control Ro 106-9920 (Tocris Cookson Ltd., Bristol, UK) a growth control (untreated cells compared to vehicle treated cells), and blank wells without cells. The proliferation assay was stopped after 4 days by crystal violet staining of the cells (0.5% in 20% methanol). Following extraction of the crystal violet with 8% acetic acid, the eluates were quantified photometrically at 570 nm and the reference wavelength 690 nm in an absorbance microplate reader (Tecan Sunrise; Tecan, Männedorf, Switzerland). Only readouts from 96-well plates with a Z-factor between 0.5 and 1.0 were used. Blank OD values were subtracted from the mean OD values. Nonlinear curve fitting and EC50 calculation was performed with Excel Solver.

Another test relates to HuH-7.
Excerpt: as §1, §2

For the next test, the system named is PLC/PRF/5.
Excerpt: as §1, §2

Turning to `CN(C)Cc1ccc(S(=O)(=O)n2ccc(/C=C/C(=O)NO)c2)cc1` [resminostat, Resminostat], the “Ratio PL/FBS” value stood at 1.0 with HepG2 (HepG2, ratio of PL/FBS EC50s); 1.3 in the test with HuH-7 (HuH-7, ratio of PL/FBS EC50s); 0.8 in the test with PLC/PRF/5 (PLC/PRF/5, ratio of PL/FBS EC50s). For the same molecule, the EC50 with HepG2 (HepG2, fetal bovine serum, read-out: EC50 in FBS) is 500 ± 100 nM; in the test on HepG2 (HepG2, platelet lysate, read-out: EC50 in PL), 500 ± 300 nM; with HuH-7 (HuH-7, fetal bovine serum, read-out: EC50 in FBS) it was 1000 ± 300 nM; in the test with HuH-7 (HuH-7, platelet lysate, read-out: EC50 in PL), 1300 ± 200 nM; with PLC/PRF/5 (PLC/PRF/5, fetal bovine serum, read-out: EC50 in FBS), 1100 ± 200 nM; in the test on PLC/PRF/5 (PLC/PRF/5, platelet lysate, read-out: EC50 in PL), 900 ± 100 nM. Also, the “effect of platelet factors on potency and efficacy” value in the test with PLC/PRF/5 (PLC/PRF/5, platelet lysate vs FBS dose-response curves (Fig. 2A)) is reported as “unaffected”.

A word on the EC50: it is the concentration needed to bring the measured effect to its halfway point.

For the origin of these results see PMC8100298, “Histone deacetylase inhibitor resminostat in combination with sorafenib counteracts platelet-mediated pro-tumoral effects in hepatocellular carcinoma” (Scientific Reports, 2021).
